Reference: the supplement of paper PMC8612539
Converted amounts (≈) assume the structure as drawn.

Test system: Pasteurella multocida
Experiment: minimum inhibitory concentration (MIC)
Method: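 Broth microdilution MIC (Sensititre BOPO7F bovine plate, CLSI methods) of 19 antimicrobials against field isolates of P. multocida, M. haemolytica, H. somni (deep nasopharyngeal swabs) and E. coli, Enterococcus spp. (rectal swabs) from weaned dairy heifers. Incubation 16-24 h at 35 C. MIC is the lowest concentration preventing visible growth. Values with <= or > lie at the tested range limits. Trimethoprim-sulfamethoxazole is given as the trimethoprim component of a 1:19 mixture.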

CCCNC[C@]1(O)[C@H](C)O[C@@H](O[C@H]2[C@H](C)[C@@H](O[C@@H]3O[C@H](C)C[C@H](N(C)C)[C@H]3O)[C@](C)(O)C[C@@H](C)CN[C@H](C)[C@@H](O)[C@](C)(O)[C@@H](CC)OC(=O)[C@@H]2C)C[C@@]1(C)OC [Tulathromycin]
Settings | minimum inhibitory concentration [µg/mL]
isolate (source animal id): 10 | ≤ 8
isolate (source animal id): 11 | 32 (≈ 39.7 µM)
isolate (source animal id): 12 | 32 (≈ 39.7 µM)
isolate (source animal id): 19 | 32 (≈ 39.7 µM)
isolate (source animal id): 23 | 16 (≈ 19.8 µM)
isolate (source animal id): 26 | ≤ 8
isolate (source animal id): 98 | ≤ 8
isolate (source animal id): 104 | > 64
isolate (source animal id): 115 | 32 (≈ 39.7 µM)
isolate (source animal id): 117 | ≤ 8
isolate (source animal id): 118 | 16 (≈ 19.8 µM)
isolate (source animal id): 121 | 32 (≈ 39.7 µM)
isolate (source animal id): 124 | ≤ 8
isolate (source animal id): 125 | ≤ 8
isolate (source animal id): 128 | 32 (≈ 39.7 µM)
isolate (source animal id): 131 | > 64
isolate (source animal id): 135 | > 64
isolate (source animal id): 136 | 32 (≈ 39.7 µM)
isolate (source animal id): 140 | 16 (≈ 19.8 µM)
isolate (source animal id): 144 | 16 (≈ 19.8 µM)
isolate (source animal id): 146 | 16 (≈ 19.8 µM)
isolate (source animal id): 150 | 64 (≈ 79.4 µM)
isolate (source animal id): 151 | 64 (≈ 79.4 µM)
isolate (source animal id): 153 | 16 (≈ 19.8 µM)
isolate (source animal id): 155 | ≤ 8
isolate (source animal id): 157 | ≤ 8
isolate (source animal id): 160 | 64 (≈ 79.4 µM)
isolate (source animal id): 164 | 64 (≈ 79.4 µM)
isolate (source animal id): 165 | 64 (≈ 79.4 µM)
isolate (source animal id): 167 | ≤ 8
isolate (source animal id): 168 | ≤ 8
isolate (source animal id): 169 | ≤ 8
isolate (source animal id): 170 | ≤ 8
isolate (source animal id): 171 | ≤ 8
isolate (source animal id): 172 | ≤ 8
isolate (source animal id): 173 | 16 (≈ 19.8 µM)
isolate (source animal id): 174 | ≤ 8
isolate (source animal id): 175 | ≤ 8
isolate (source animal id): 176 | ≤ 8
isolate (source animal id): 177 | ≤ 8
isolate (source animal id): 178 | ≤ 8
isolate (source animal id): 179 | ≤ 8
isolate (source animal id): 182 | ≤ 8
isolate (source animal id): 192 | ≤ 8
isolate (source animal id): 193 | ≤ 8
isolate (source animal id): 195 | ≤ 8
isolate (source animal id): 196 | ≤ 8
isolate (source animal id): 197 | ≤ 8
isolate (source animal id): 198 | 16 (≈ 19.8 µM)
isolate (source animal id): 199 | ≤ 8
isolate (source animal id): 200 | ≤ 8
isolate (source animal id): 201 | ≤ 8
isolate (source animal id): 203 | ≤ 8
isolate (source animal id): 204 | ≤ 8
isolate (source animal id): 205 | 16 (≈ 19.8 µM)
isolate (source animal id): 206 | ≤ 8
isolate (source animal id): 207 | ≤ 8
isolate (source animal id): 208 | ≤ 8
isolate (source animal id): 209 | ≤ 8
isolate (source animal id): 210 | 16 (≈ 19.8 µM)
isolate (source animal id): 213 | ≤ 8
isolate (source animal id): 216 | ≤ 8
isolate (source animal id): 223 | 16 (≈ 19.8 µM)
isolate (source animal id): 227 | ≤ 8
isolate (source animal id): 229 | ≤ 8
isolate (source animal id): 233 | ≤ 8
isolate (source animal id): 234 | ≤ 8
isolate (source animal id): 237 | 16 (≈ 19.8 µM)
isolate (source animal id): 241 | 16 (≈ 19.8 µM)
isolate (source animal id): 245 | ≤ 8
isolate (source animal id): 247 | 16 (≈ 19.8 µM)
isolate (source animal id): 250 | ≤ 8
isolate (source animal id): 254 | 32 (≈ 39.7 µM)
isolate (source animal id): 255 | 16 (≈ 19.8 µM)
isolate (source animal id): 258 | ≤ 8
isolate (source animal id): 261 | ≤ 8
isolate (source animal id): 262 | 16 (≈ 19.8 µM)
isolate (source animal id): 269 | ≤ 8
isolate (source animal id): 270 | ≤ 8
isolate (source animal id): 274 | ≤ 8
isolate (source animal id): 275 | ≤ 8
isolate (source animal id): 276 | 16 (≈ 19.8 µM)
isolate (source animal id): 277 | ≤ 8
isolate (source animal id): 278 | ≤ 8
isolate (source animal id): 279 | ≤ 8
isolate (source animal id): 280 | > 64
isolate (source animal id): 284 | ≤ 8
isolate (source animal id): 285 | 16 (≈ 19.8 µM)
isolate (source animal id): 287 | 16 (≈ 19.8 µM)
isolate (source animal id): 290 | ≤ 8
isolate (source animal id): 294 | ≤ 8
isolate (source animal id): 295 | 16 (≈ 19.8 µM)
isolate (source animal id): 296 | ≤ 8
isolate (source animal id): 307 | ≤ 8
isolate (source animal id): 310 | 16 (≈ 19.8 µM)
isolate (source animal id): 311 | 16 (≈ 19.8 µM)
isolate (source animal id): 312 | ≤ 8
isolate (source animal id): 313 | 16 (≈ 19.8 µM)
isolate (source animal id): 315 | 16 (≈ 19.8 µM)
isolate (source animal id): 316 | 16 (≈ 19.8 µM)

CCN1CCN(c2cc3c(cc2F)c(=O)c(C(=O)O)cn3C2CC2)CC1 [Enrofloxacin]
Settings | minimum inhibitory concentration [µg/mL]
isolate (source animal id): 10 | 1 (≈ 2.78 µM)
isolate (source animal id): 11 | 1 (≈ 2.78 µM)
isolate (source animal id): 12 | 1 (≈ 2.78 µM)
isolate (source animal id): 19 | 1 (≈ 2.78 µM)
isolate (source animal id): 23 | 1 (≈ 2.78 µM)
isolate (source animal id): 26 | 2 (≈ 5.56 µM)
isolate (source animal id): 98 | 2 (≈ 5.56 µM)
isolate (source animal id): 104 | 0.5 (≈ 1.39 µM)
isolate (source animal id): 115 | ≤ 0.12
isolate (source animal id): 117 | > 2
isolate (source animal id): 118 | 2 (≈ 5.56 µM)
isolate (source animal id): 121 | ≤ 0.12
isolate (source animal id): 124 | 1 (≈ 2.78 µM)
isolate (source animal id): 125 | 1 (≈ 2.78 µM)
isolate (source animal id): 128 | ≤ 0.12
isolate (source animal id): 131 | > 2
isolate (source animal id): 135 | > 2
isolate (source animal id): 136 | ≤ 0.12
isolate (source animal id): 140 | 1 (≈ 2.78 µM)
isolate (source animal id): 144 | 1 (≈ 2.78 µM)
isolate (source animal id): 146 | 1 (≈ 2.78 µM)
isolate (source animal id): 150 | ≤ 0.12
isolate (source animal id): 151 | ≤ 0.12
isolate (source animal id): 153 | 1 (≈ 2.78 µM)
isolate (source animal id): 155 | 0.5 (≈ 1.39 µM)
isolate (source animal id): 157 | 2 (≈ 5.56 µM)
isolate (source animal id): 160 | ≤ 0.12
isolate (source animal id): 164 | ≤ 0.12
isolate (source animal id): 165 | ≤ 0.12
isolate (source animal id): 167 | ≤ 0.12
isolate (source animal id): 168 | 2 (≈ 5.56 µM)
isolate (source animal id): 169 | ≤ 0.12
isolate (source animal id): 170 | ≤ 0.12
isolate (source animal id): 171 | ≤ 0.12
isolate (source animal id): 172 | ≤ 0.12
isolate (source animal id): 173 | 2 (≈ 5.56 µM)
isolate (source animal id): 174 | ≤ 0.12
isolate (source animal id): 175 | ≤ 0.12
isolate (source animal id): 176 | ≤ 0.12
isolate (source animal id): 177 | ≤ 0.12
isolate (source animal id): 178 | ≤ 0.12
isolate (source animal id): 179 | ≤ 0.12
isolate (source animal id): 182 | ≤ 0.12
isolate (source animal id): 192 | ≤ 0.12
isolate (source animal id): 193 | ≤ 0.12
isolate (source animal id): 195 | ≤ 0.12
isolate (source animal id): 196 | ≤ 0.12
isolate (source animal id): 197 | ≤ 0.12
isolate (source animal id): 198 | 2 (≈ 5.56 µM)
isolate (source animal id): 199 | ≤ 0.12
isolate (source animal id): 200 | ≤ 0.12
isolate (source animal id): 201 | ≤ 0.12
isolate (source animal id): 203 | ≤ 0.12
isolate (source animal id): 204 | ≤ 0.12
isolate (source animal id): 205 | 2 (≈ 5.56 µM)
isolate (source animal id): 206 | ≤ 0.12
isolate (source animal id): 207 | ≤ 0.12
isolate (source animal id): 208 | ≤ 0.12
isolate (source animal id): 209 | ≤ 0.12
isolate (source animal id): 210 | 2 (≈ 5.56 µM)
isolate (source animal id): 213 | ≤ 0.12
isolate (source animal id): 216 | ≤ 0.12
isolate (source animal id): 223 | > 2
isolate (source animal id): 227 | ≤ 0.12
isolate (source animal id): 229 | 2 (≈ 5.56 µM)
isolate (source animal id): 233 | 2 (≈ 5.56 µM)
isolate (source animal id): 234 | 2 (≈ 5.56 µM)
isolate (source animal id): 237 | > 2
isolate (source animal id): 241 | > 2
isolate (source animal id): 245 | > 2
isolate (source animal id): 247 | 0.5 (≈ 1.39 µM)
isolate (source animal id): 250 | 1 (≈ 2.78 µM)
isolate (source animal id): 254 | 2 (≈ 5.56 µM)
isolate (source animal id): 255 | 2 (≈ 5.56 µM)
isolate (source animal id): 258 | ≤ 0.12
isolate (source animal id): 261 | 2 (≈ 5.56 µM)
isolate (source animal id): 262 | 1 (≈ 2.78 µM)
isolate (source animal id): 269 | ≤ 0.12
isolate (source animal id): 270 | 2 (≈ 5.56 µM)
isolate (source animal id): 274 | > 2
isolate (source animal id): 275 | 2 (≈ 5.56 µM)
isolate (source animal id): 276 | > 2
isolate (source animal id): 277 | ≤ 0.12
isolate (source animal id): 278 | 2 (≈ 5.56 µM)
isolate (source animal id): 279 | 0.5 (≈ 1.39 µM)
isolate (source animal id): 280 | 0.5 (≈ 1.39 µM)
isolate (source animal id): 284 | 2 (≈ 5.56 µM)
isolate (source animal id): 285 | 1 (≈ 2.78 µM)
isolate (source animal id): 287 | 2 (≈ 5.56 µM)
isolate (source animal id): 290 | ≤ 0.12
isolate (source animal id): 294 | ≤ 0.12
isolate (source animal id): 295 | ≤ 0.12
isolate (source animal id): 296 | 1 (≈ 2.78 µM)
isolate (source animal id): 307 | ≤ 0.12
isolate (source animal id): 310 | ≤ 0.12
isolate (source animal id): 311 | ≤ 0.12
isolate (source animal id): 312 | 1 (≈ 2.78 µM)
isolate (source animal id): 313 | 1 (≈ 2.78 µM)
isolate (source animal id): 315 | 1 (≈ 2.78 µM)
isolate (source animal id): 316 | 1 (≈ 2.78 µM)
